Test results reported in article PMC7504348 (Molecules, 2020).
Where two headings read alike, the source gives them in different places.

Legend:
β-secretase (BACE-1) = target: T1, β-secretase (BACE-1) (Homo sapiens, UniProt P56817); test: biochemical; conditions: reported with SD
T1 construct: purchased Sigma–Aldrich
Description: β-secretase (BACE-1) Activity Detection Kit (Fluorescent) was purchased from Sigma–Aldrich and used to determine the effect of the synthesized chalcones on β-secretase activity. The assay was carried out according to the manufacturer’s protocol. The enzyme solution (0.3 units/uL, 2 μL) was reacted with the 50 μM of the substrate (7-methoxycumarin- 4-acetyl-(Asn670, Lue671)-amyloid β/A4 precursor protein 770 fragment 667–676-(2,4-dinitrophenyl))Lys-Arg-Arg amide trifluoroacetate salt and sulfated polysaccharide samples (2–5 mg/mL) in a fluorescence assay buffer in different wells. Baseline readings were measure immediately on a Hitachi F-7000 (excitation: 320 nm; emission: 405 nm) fluorescence spectrophotometer and repeated after 2 h incubation at 37 °C. […] The method was as described earlier.

[1] = target: T2, acetylcolinesterase from electric eel (Type VI) (Electrophorus electricus, UniProt O42275); test: biochemical; conditions: reported with SD; assayed in triplicate; read-out: AChE IC50
T2 construct: purified acetylcolinesterase from electric eel (Type VI); tissue Type VI; host or cells: electric eel
Description: The assay was performed in 96-well microtiter plates in the same condition for both chalcones and control substance. 25 µL of 100 mM sodium phosphate buffer pH 8, 25 µL of sample and 25 µL acetylcholinesterase solutions containing 0.54 U/mL were mixed in each well of the plate and allowed to incubate for 15 min at 25 °C. Subsequently, 25 µL of a solution of ATCI (15 mM, dissolved in water) and 125 µL of 3 mM DTNB (5,5’-dithio-bis-nitro benzoic acid) were added. The absorbance at 405 nm was recorded during the first 5 min of the reaction. […] Percentages (%) of AChE inhibitions of tested compounds were calculated from the absorbance values as indicated in Equation (1):% I = [(A0E − A0) − (Ac − A0C)]/(A0E − A0)(1) where I is the percent inhibition of acetylcholinesterase; A0E is the absorbance value of the control blank sample with enzyme; A0 is the absorbance value of blank sample; Ac is the absorbance value of the tested sample; A0C is the absorbance value of blank test sample.
The method was as described earlier.

[2] = pIC50 = −logIC50, read-out: BACE-1 pIC50 Observed (converted)

T1 sequence (P56817 46-501): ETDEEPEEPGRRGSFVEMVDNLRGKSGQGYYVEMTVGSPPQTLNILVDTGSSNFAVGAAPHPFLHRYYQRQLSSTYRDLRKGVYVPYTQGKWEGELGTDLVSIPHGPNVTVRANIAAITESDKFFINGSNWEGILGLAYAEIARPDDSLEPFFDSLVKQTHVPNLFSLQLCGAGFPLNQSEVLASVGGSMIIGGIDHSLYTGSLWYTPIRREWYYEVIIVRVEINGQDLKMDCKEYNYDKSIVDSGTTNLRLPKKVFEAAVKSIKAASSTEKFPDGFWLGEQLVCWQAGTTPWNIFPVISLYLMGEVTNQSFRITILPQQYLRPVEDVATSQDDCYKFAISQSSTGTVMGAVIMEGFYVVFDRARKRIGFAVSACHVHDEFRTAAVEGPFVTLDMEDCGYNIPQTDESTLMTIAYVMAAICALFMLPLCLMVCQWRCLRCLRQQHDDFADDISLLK
T2 sequence (O42275 24-633): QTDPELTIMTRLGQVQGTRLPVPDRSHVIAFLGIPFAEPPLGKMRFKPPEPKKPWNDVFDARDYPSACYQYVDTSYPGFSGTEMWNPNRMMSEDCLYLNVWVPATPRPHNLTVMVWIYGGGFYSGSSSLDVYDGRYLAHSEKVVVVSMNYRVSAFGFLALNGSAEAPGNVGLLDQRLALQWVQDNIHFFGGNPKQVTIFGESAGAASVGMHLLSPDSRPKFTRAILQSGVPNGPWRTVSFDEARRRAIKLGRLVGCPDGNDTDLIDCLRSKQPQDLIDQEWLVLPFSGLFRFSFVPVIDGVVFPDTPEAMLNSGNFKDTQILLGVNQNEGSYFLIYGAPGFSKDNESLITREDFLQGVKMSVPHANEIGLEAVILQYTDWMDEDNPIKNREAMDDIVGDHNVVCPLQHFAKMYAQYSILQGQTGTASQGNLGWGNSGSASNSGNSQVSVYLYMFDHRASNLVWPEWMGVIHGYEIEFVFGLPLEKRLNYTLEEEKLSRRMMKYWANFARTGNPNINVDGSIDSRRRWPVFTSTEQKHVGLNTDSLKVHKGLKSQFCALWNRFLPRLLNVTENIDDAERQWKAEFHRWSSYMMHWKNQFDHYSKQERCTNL

Q: Which results are given for CN(C)CCCN1c2ccccc2Sc2ccc(C(=O)/C=C/c3ccc(N(C)C)cc3)cc21 [AC12]?
A: IC50 (β-secretase (BACE-1); [2]): 0.347 µM; IC50 (β-secretase (BACE-1); read-out: BACE-1 IC50): 0.35 ± 0.04 µM; IC50 [1]: 1.1 ± 0.24 µM

Q: How did the IC50 (β-secretase (BACE-1); [2]) turn out when COc1cccc(/C=C/C(=O)c2ccc3c(c2)N(CCCN(C)C)c2ccccc2S3)c1 [AC2, (E)-1-(10-(3-(dimethylamino)propyl)-10H-phenothiazin-2-yl)-3-(3-methoxyphenyl)prop-2-en-1-one] was run?
A: Its IC50 is 3.02 µM.

Q: And the IC50 (β-secretase (BACE-1); read-out: BACE-1 IC50)?
A: Its IC50 is 3 µM.

Q: What about the IC50 [1] of the same compound?
A: Its IC50 is 30.9 ± 2.1 µM.

Q: For CN(C)CCCN1c2ccccc2Sc2ccc(C(=O)/C=C/c3c(F)cccc3Cl)cc21 [AC7], which IC50 (β-secretase (BACE-1); [2]) is on record?
A: Its IC50 is 0.447 µM.

Q: What about the IC50 (β-secretase (BACE-1); read-out: BACE-1 IC50) of the same compound?
A: The IC50 was 0.45 ± 0.04 µM.

Q: And the IC50 [1]?
A: The IC50 was 40.7 ± 2.48 µM.

Q: What does the source list for CN(C)CCCN1c2ccccc2Sc2ccc(C(=O)/C=C/c3cccc(Br)c3)cc21 [AC10]?
A: IC50 (β-secretase (BACE-1); [2]): 2 µM; IC50 (β-secretase (BACE-1); read-out: BACE-1 IC50): 1.99 ± 0.21 µM; IC50 [1]: 24.6 ± 1.09 µM

Q: Which results are given for CN(C)CCCN1c2ccccc2Sc2ccc(C(=O)/C=C/c3ccccc3)cc21 [AC1, (E)-1-(10-(3-(dimethylamino)propyl)-10H-phenothiazin-2-yl)-3-phenylprop-2-en-1-one]?
A: IC50 (β-secretase (BACE-1); [2]): 6.31 µM; IC50 (β-secretase (BACE-1); read-out: BACE-1 IC50): 6.34 ± 0.46 µM; IC50 [1]: 33.9 ± 1.45 µM

Q: With COc1cc(/C=C/C(=O)c2ccc3c(c2)N(CCCN(C)C)c2ccccc2S3)cc(OC)c1OC [AC4, (E)-1-(10-(3-(dimethylamino)propyl)-10H-phenothiazin-2-yl)-3-(3,4,5-trimethoxyphenyl)prop-2-en-1-one] as the compound, how does the IC50 (β-secretase (BACE-1); [2]) read?
A: Its IC50 is 0.155 µM.

Q: And the IC50 (β-secretase (BACE-1); read-out: BACE-1 IC50)?
A: The IC50 was 0.16 ± 0.03 µM.

Q: And the IC50 [1]?
A: Its IC50 is 3.63 ± 0.61 µM.

Q: Which results are given for CN(C)CCCN1c2ccccc2Sc2ccc(C(=O)/C=C/c3ccc(F)cc3)cc21 [AC9, (E)-1-(10-(3-(dimethylamino)propyl)-10H-phenothiazin-2-yl)-3-(4-fluorophenyl)prop-2-en-1-one]?
A: IC50 (β-secretase (BACE-1); [2]): 3.72 µM; IC50 (β-secretase (BACE-1); read-out: BACE-1 IC50): 3.72 ± 0.21 µM; IC50 [1]: 25.1 ± 0.83 µM

Q: With CN(C)CCCN1c2ccccc2Sc2ccc(C(=O)/C=C/c3ccccc3Cl)cc21 [AC8] as the compound, how does the IC50 (β-secretase (BACE-1); [2]) read?
A: Its IC50 is 2.95 µM.

Q: What about the IC50 (β-secretase (BACE-1); read-out: BACE-1 IC50) of the same compound?
A: Its IC50 is 2.97 ± 0.05 µM.

Q: And the IC50 [1]?
A: Its IC50 is 15.8 ± 1.08 µM.

Q: For COc1ccc(/C=C/C(=O)c2ccc3c(c2)N(CCCN(C)C)c2ccccc2S3)cc1 [AC3, (E)-1-(10-(3-(dimethylamino)propyl)-10H-phenothiazin-2-yl)-3-(4-methoxyphenyl)prop-2-en-1-one], which IC50 (β-secretase (BACE-1); [2]) is on record?
A: Its IC50 is 4.47 µM.

Q: What about the IC50 (β-secretase (BACE-1); read-out: BACE-1 IC50) of the same compound?
A: Its IC50 is 4.48 ± 0.4 µM.

Q: What about the IC50 [1] of the same compound?
A: The IC50 was 11.5 ± 1.29 µM.

Q: For CN(C)CCCN1c2ccccc2Sc2ccc(C(=O)/C=C/c3ccc(OCc4ccccc4)cc3)cc21 [AC13], which IC50 (β-secretase (BACE-1); [2]) is on record?
A: The IC50 was 3.02 µM.

Q: What about the IC50 (β-secretase (BACE-1); read-out: BACE-1 IC50) of the same compound?
A: Its IC50 is 3.03 ± 0.21 µM.

Q: And the IC50 [1]?
A: Its IC50 is 11.8 ± 0.63 µM.

Q: How did the IC50 (β-secretase (BACE-1); [2]) turn out when CN(C)CCCN1c2ccccc2Sc2ccc(C(=O)/C=C/c3ccc(Cl)cc3)cc21 [AC5] was run?
A: Its IC50 is 1.23 µM.

Q: What about the IC50 (β-secretase (BACE-1); read-out: BACE-1 IC50) of the same compound?
A: The IC50 was 1.24 ± 0.12 µM.

Q: And the IC50 [1]?
A: The IC50 was 60.3 ± 1.84 µM.

Q: Which IC50 (β-secretase (BACE-1); [2]) does the source give for CN(C)CCCN1c2ccccc2Sc2ccc(C(=O)/C=C/c3ccc(Cl)cc3Cl)cc21 [AC6] here?
A: Its IC50 is 0.501 µM.

Q: And the IC50 (β-secretase (BACE-1); read-out: BACE-1 IC50)?
A: The IC50 was 0.5 µM.

Q: What about the IC50 [1] of the same compound?
A: The IC50 was 20 ± 1.57 µM.

Q: CN(C)CCCN1c2ccccc2Sc2ccc(C(=O)/C=C/c3ccccc3C(F)(F)F)cc21 [AC11] was tested. Which IC50 (β-secretase (BACE-1); [2]) did it give?
A: The IC50 was 0.398 µM.

Q: What about the IC50 (β-secretase (BACE-1); read-out: BACE-1 IC50) of the same compound?
A: The IC50 was 0.4 µM.

Q: What about the IC50 [1] of the same compound?
A: Its IC50 is 186 ± 4.52 µM.
